# From PMC7026418, “The kinase polypharmacology landscape of clinical PARP inhibitors” (Scientific Reports, 2020)
# Like-named read-outs stand apart in the source and are kept apart here.
# Key:
# Test in all cases: biochemical
# LATS2 = target: T1, LATS2 (Homo sapiens, UniProt Q9NRM7); set-up: Reaction Biology HotSpot radiometric 33P-ATP catalytic assay at Km ATP; percent inhibition versus DMSO, mean n=2; conditions: Km ATP
# T1 sequence (Q9NRM7 1-1088): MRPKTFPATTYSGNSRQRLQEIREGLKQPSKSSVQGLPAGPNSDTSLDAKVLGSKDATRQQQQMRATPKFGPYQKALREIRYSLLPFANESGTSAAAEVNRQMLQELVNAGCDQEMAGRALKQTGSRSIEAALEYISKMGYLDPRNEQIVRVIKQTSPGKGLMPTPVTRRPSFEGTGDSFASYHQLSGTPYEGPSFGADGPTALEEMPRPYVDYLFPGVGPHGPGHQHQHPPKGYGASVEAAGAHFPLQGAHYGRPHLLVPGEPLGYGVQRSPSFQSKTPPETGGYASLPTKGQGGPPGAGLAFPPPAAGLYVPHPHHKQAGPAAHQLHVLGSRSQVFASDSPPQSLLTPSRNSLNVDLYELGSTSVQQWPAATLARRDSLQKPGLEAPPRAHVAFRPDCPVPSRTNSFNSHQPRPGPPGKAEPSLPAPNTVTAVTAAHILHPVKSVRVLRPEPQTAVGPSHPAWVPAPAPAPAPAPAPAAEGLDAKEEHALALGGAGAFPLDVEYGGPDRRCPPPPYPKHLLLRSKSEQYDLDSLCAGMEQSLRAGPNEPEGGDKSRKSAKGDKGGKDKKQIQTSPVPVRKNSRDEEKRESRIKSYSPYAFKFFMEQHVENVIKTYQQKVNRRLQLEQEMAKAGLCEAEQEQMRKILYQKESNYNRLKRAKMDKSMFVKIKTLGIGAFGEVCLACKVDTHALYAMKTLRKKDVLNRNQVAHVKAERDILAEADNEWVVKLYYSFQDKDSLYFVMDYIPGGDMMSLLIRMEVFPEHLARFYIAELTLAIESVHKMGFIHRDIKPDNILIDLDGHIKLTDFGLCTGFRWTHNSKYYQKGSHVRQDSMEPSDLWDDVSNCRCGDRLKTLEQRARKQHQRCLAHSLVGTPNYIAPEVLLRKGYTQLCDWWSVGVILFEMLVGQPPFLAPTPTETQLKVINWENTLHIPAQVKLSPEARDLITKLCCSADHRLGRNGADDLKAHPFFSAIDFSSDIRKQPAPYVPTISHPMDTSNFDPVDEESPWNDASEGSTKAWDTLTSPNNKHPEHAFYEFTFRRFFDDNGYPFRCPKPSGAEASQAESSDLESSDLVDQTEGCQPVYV
# Text: (§1) Unreacted phosphate is removed via washing the filters.
# MYLK4 = target: T2, MYLK4 (Homo sapiens, UniProt Q86YV6); set-up: Reaction Biology HotSpot radiometric 33P-ATP catalytic assay at Km ATP; percent inhibition versus DMSO, mean n=2; conditions: Km ATP
# T2 sequence (Q86YV6 1-388): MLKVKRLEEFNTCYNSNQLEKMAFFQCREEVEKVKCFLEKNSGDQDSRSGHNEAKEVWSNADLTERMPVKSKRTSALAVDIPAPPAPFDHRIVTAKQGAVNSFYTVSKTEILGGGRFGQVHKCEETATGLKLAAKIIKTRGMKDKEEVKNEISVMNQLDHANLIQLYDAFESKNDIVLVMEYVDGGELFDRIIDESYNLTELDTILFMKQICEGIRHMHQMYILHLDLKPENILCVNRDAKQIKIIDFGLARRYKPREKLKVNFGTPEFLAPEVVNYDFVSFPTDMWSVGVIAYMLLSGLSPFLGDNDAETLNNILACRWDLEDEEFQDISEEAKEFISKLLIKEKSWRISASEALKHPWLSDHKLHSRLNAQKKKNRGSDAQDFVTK
# Text: as §1
# PIM1 = PIM1 (Homo sapiens, UniProt P11309); set-up: Reaction Biology HotSpot radiometric 33P-ATP catalytic assay at Km ATP; percent inhibition versus DMSO, mean n=2; conditions: Km ATP
# PIM1, sequence (P11309 whole entry): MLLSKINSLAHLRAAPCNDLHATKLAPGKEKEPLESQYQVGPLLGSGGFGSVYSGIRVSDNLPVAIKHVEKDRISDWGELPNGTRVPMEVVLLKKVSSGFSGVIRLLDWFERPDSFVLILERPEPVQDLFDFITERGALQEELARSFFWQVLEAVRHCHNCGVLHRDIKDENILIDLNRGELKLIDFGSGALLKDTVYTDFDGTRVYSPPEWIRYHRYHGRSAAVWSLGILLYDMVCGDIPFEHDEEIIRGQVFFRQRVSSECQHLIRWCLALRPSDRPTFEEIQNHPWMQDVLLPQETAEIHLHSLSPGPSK
# Text: as §1
# PIM2 = PIM2 (Homo sapiens, UniProt Q9P1W9); set-up: Reaction Biology HotSpot radiometric 33P-ATP catalytic assay at Km ATP; percent inhibition versus DMSO, mean n=2; conditions: Km ATP
# PIM2, sequence (Q9P1W9 whole entry): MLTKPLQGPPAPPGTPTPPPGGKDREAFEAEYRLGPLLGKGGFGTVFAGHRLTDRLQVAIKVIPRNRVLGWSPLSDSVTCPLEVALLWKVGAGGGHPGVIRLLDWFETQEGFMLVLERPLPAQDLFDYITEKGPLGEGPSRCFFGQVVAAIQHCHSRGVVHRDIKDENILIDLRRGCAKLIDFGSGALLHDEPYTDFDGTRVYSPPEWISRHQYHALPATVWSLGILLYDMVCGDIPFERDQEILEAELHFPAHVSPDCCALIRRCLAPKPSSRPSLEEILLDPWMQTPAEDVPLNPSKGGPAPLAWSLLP
# Text: as §1
# PIM3 = PIM3 (Homo sapiens, UniProt Q86V86); set-up: Reaction Biology HotSpot radiometric 33P-ATP catalytic assay at Km ATP; percent inhibition versus DMSO, mean n=2; conditions: Km ATP
# Text: as §1
# HIPK1 [1] = target: T3, HIPK1 (Homo sapiens, UniProt Q86Z02); conditions: read-out: Niraparib
# T3 sequence (Q86Z02 whole entry): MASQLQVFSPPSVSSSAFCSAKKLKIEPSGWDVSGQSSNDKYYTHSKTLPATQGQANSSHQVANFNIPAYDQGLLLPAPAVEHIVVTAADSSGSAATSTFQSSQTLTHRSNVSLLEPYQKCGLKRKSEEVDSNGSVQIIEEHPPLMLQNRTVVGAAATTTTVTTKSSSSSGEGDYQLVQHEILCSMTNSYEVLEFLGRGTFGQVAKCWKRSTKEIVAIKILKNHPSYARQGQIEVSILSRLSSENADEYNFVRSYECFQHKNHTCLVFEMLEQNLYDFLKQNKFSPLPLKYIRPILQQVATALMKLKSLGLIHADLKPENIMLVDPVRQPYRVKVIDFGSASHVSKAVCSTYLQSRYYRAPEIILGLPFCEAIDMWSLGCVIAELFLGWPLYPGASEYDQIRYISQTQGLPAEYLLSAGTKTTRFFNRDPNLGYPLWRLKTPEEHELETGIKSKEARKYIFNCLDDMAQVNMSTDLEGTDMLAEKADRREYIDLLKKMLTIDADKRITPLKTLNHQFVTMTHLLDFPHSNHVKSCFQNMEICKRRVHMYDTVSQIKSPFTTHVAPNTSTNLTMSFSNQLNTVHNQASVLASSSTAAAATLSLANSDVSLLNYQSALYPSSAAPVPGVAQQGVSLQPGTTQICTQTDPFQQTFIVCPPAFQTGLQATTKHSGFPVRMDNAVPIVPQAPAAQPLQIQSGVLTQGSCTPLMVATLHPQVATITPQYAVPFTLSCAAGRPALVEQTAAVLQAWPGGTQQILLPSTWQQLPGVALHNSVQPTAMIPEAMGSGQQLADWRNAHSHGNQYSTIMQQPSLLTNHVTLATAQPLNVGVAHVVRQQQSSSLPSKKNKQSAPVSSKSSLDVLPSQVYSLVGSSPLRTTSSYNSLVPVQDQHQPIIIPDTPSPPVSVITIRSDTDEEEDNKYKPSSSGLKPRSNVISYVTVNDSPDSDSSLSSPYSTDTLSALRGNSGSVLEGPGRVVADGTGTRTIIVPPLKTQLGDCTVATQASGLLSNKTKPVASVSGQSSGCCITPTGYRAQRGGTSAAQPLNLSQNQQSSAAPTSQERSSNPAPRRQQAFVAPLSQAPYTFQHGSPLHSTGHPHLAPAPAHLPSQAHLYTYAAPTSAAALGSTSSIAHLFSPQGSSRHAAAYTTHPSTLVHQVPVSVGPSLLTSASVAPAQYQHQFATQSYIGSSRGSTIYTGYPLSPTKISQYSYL
# Aurora B = target: T4, Aurora B (Homo sapiens, UniProt Q96GD4); conditions: read-out: Niraparib
# T4 construct: gene AURKB
# T4 sequence (Q96GD4 whole entry): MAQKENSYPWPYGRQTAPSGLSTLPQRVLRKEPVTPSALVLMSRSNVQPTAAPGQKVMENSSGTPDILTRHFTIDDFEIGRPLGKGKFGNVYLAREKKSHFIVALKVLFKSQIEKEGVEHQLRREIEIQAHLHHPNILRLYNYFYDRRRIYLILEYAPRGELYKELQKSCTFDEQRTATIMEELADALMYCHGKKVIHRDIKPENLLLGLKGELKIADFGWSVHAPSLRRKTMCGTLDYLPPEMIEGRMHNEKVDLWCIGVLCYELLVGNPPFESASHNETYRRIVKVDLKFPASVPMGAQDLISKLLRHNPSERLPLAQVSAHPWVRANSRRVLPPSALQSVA
# CDK16 = target: T5, CDK16 (Homo sapiens, UniProt Q00536); set-up: Reaction Biology HotSpot radiometric 33P-ATP catalytic assay at Km ATP; percent inhibition versus DMSO, mean n=2; conditions: Km ATP
# T5 construct: with cyclin Y
# T5 sequence (Q00536 whole entry): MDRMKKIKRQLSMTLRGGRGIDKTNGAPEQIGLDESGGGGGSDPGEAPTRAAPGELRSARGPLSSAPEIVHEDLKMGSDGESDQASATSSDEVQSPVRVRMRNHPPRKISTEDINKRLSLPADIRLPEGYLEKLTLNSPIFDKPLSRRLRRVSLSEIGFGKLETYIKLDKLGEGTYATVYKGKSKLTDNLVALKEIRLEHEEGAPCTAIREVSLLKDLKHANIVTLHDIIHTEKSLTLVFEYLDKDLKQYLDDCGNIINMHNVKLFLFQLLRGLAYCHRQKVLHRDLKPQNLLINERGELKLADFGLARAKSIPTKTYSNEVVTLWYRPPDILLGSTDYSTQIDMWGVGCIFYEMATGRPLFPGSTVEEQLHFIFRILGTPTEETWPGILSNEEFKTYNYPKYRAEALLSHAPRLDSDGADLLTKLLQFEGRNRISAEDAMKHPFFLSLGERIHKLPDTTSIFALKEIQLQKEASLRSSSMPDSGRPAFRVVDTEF
# T5 sequence (Q8ND76 2-341 partner): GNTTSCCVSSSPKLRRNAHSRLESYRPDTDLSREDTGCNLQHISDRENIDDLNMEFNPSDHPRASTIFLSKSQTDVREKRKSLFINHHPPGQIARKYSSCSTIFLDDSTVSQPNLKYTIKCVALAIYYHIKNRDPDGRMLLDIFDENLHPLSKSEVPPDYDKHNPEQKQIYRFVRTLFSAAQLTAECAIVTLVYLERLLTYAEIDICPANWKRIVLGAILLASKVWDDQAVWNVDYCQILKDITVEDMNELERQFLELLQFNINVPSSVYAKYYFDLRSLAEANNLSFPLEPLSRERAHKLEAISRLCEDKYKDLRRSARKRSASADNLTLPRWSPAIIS
# Text: as §1
# CDK4-cyclinD3 = CDK4-cyclinD3 (Homo sapiens, UniProt P11802); set-up: Reaction Biology HotSpot radiometric 33P-ATP catalytic assay at Km ATP; percent inhibition versus DMSO, mean n=2; conditions: Km ATP
# CDK4-cyclinD3, sequence (P11802 whole entry): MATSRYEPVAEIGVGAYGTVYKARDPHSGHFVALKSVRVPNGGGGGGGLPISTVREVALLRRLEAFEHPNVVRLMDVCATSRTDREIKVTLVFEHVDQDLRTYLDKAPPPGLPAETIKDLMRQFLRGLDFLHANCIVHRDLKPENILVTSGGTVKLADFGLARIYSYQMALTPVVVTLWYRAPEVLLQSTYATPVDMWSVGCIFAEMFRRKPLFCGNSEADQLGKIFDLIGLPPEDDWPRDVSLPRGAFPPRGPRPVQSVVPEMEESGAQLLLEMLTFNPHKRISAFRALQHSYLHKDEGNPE
# CDK4-cyclinD3, sequence (P30281 whole entry partner): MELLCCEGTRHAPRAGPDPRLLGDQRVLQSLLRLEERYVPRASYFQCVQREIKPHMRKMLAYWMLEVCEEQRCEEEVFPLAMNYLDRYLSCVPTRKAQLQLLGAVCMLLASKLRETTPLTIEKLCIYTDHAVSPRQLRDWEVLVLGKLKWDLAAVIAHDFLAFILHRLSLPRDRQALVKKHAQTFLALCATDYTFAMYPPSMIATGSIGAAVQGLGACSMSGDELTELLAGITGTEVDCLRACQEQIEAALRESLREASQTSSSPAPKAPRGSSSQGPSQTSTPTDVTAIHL
# Text: as §1
# HIPK1 [2] = target: T3, HIPK1; set-up: Reaction Biology HotSpot radiometric 33P-ATP catalytic assay at Km ATP; percent inhibition versus DMSO, mean n=2; conditions: Km ATP
# Text: as §1
# STK17A = STK17A (Homo sapiens, UniProt Q9UEE5); set-up: Reaction Biology HotSpot radiometric 33P-ATP catalytic assay at Km ATP; percent inhibition versus DMSO, mean n=2; conditions: Km ATP
# STK17A, sequence (Q9UEE5 whole entry): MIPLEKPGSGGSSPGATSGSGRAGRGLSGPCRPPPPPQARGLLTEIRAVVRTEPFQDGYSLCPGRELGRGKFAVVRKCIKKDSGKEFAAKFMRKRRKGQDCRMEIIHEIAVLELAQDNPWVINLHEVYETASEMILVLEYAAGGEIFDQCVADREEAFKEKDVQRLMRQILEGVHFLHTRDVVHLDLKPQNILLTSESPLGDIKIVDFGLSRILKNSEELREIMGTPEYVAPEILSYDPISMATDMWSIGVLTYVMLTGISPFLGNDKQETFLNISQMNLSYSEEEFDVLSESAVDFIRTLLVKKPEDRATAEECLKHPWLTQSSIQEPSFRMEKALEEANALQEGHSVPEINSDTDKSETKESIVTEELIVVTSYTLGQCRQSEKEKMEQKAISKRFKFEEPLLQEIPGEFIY
# Text: as §1
# TSSK3 = target: T6, TSSK3 (Homo sapiens, UniProt Q96PN8); set-up: Reaction Biology HotSpot radiometric 33P-ATP catalytic assay at Km ATP; percent inhibition versus DMSO, mean n=2; conditions: Km ATP
# T6 sequence (Q96PN8 1-268): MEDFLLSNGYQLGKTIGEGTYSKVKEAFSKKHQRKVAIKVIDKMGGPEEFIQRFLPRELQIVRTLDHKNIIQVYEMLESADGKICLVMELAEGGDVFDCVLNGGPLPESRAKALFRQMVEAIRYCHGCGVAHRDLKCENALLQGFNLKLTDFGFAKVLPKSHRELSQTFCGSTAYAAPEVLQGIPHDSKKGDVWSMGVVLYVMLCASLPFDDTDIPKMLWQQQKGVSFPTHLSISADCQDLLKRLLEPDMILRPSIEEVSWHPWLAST
# Text: as §1
SMILES,inhibition at 1 µM (LATS2),inhibition at 1 µM (MYLK4),inhibition at 1 µM (PIM1),inhibition at 1 µM (PIM2),inhibition at 1 µM (PIM3),inhibition at 1 µM (HIPK1 [1]),inhibition at 1 µM (Aurora B),inhibition at 1 µM (CDK16),inhibition at 1 µM (CDK4-cyclinD3),inhibition at 1 µM (HIPK1 [2]),inhibition at 1 µM (STK17A),inhibition at 1 µM (TSSK3)
NC(=O)c1cccc2cn(-c3ccc([C@@H]4CCCNC4)cc3)nc12 [Niraparib],17%,19%,22%,-5%,15%,40%,34%,,,,,
CNCc1ccc(-c2[nH]c3cc(F)cc4c3c2CCNC4=O)cc1 [Rucaparib],,,,,,,,82%,10%,-16%,-6%,-1%
